Reference: patent US20100204487A1, “PROCESS FOR MAKING THIOPHENE CARBOXAMIDE DERIVATIVES” (priority 2007, published 2010)
Where a name gives a salt, the structure may show the parent alone.

Tests used:
[1] = in vivo
[2] = pharmacokinetics / bioavailability of free acid and salts of the compound of Formula I; details: free acid

**Q.** With `Cc1sc(C)c(C(=O)NC2(c3ccc(C(=O)O)cc3)CC2)c1Cc1ccc(C(F)(F)F)cc1` [Et2NH salt, 4-{1-[({2,5-dimethyl-4-[4-(trifluoromethyl)benzyl]-3-thienyl}carbonyl)amino]cyclopropyl}benzoic acid diethylamine salt] as the compound, how does the exposure [1] read?
**A.** Its exposure is “doubled the exposure”.

**Q.** Which bioavailability [2] does the source give for `Cc1sc(C)c(C(=O)NC2(c3ccc(C(=O)O)cc3)CC2)c1Cc1ccc(C(F)(F)F)cc1` [free acid of Formula I] here?
**A.** Its bioavailability is “poorly bioavailable”.
